From patent US8951977B2, “Amorphous roxithromycin composition” (North-West University, priority 2011, dated 2015)
Values after ≈ are worked out from the molar mass of the structure shown.

Tests used:
[1] = Stability trial at increased temperature and 75% relative humidity for 4 weeks (TGA, XRPD, IR); assay type: physicochemical
Description: During further stability analysis, samples of both the raw material and amorphous form (Form-III) of roxithromycin were kept at 25 degrees Celsius and 75% relative humidity (RH) (FIG. 7); 30 degrees Celsius and 75% relative humidity (FIG. 8); and 40 degrees Celsius and 75% relative humidity, for a period of 4 weeks. The samples were analysed by thermogravimetric analysis (TGA) and percentage weight loss/gain was determined.
It is evident from FIGS. 7 and 8 that after week 4 of a stability trial an amount of approximately 2.5% moisture is absorbed by the samples. The TGA results obtained for the samples stored at 40° C./75% RH (FIG. 9) did however not show the same extent of moisture absorption as that obtained with the samples of FIGS. 7 and 8. […] No moisture-induced recrystallisations of the amorphous form were observed. […] The amorphous form (Form-III) could therefore be regarded as stable against increased temperatures and humidity.
The IR data illustrates that the absorbed moisture was not structurally absorbed within the molecule, but only absorbed on the surface of the structure. This is confirmed by the peak between wavenumbers 3580 to 3464 cm^−1 that represents the —OH bands of roxithromycin raw material and the lack of peaks in the amorphous form (Form-III) of roxithromycin. […]

[2] = Solubility of roxithromycin forms in buffer media and water, excess solid, 37 degrees Celsius, 24 h, HPLC assay; assay type: physicochemical; details: for solubility at 24 h: 37 °C, thermodynamic from solid, 37 degrees Celsius
Description: In further analysis of the novel Form-III, each of five replicate test tubes were filled with an excess of the amorphous form (Form-III) of roxithromycin and 10 ml of solubility medium. The process was performed with each of the following mediums: acetate buffer (pH 4.5), phosphate buffer (pH 6.8), distilled water and 0.1 M HCl. The phosphate buffer comprises potassium dihydrogen phosphate, disodium hydrogen phosphate and water. The acetate buffer comprises ammonium acetate, glacial acetic acid and water. This method was also used for testing the prior art anhydrous roxithromycin.
The test tubes were fixed to a rotating axis (54 rpm) and submerged in a water bath at 37 degrees Celsius±2 degrees Celsius for twenty-four hours. The contents of the test tubes were filtered through a 0.45 μm filter and subsequently the respective filtrates were diluted.
The concentrations of the four filtrates of amorphous form (Form-III) of roxithromycin and roxithromycin raw material were respectively determined by HPLC (high performance liquid chromatography) assay. The HPLC assay was performed utilising a mobile phase of 30 g/L ammonium dihydrogen phosphate buffer at pH 5.3. The pH was adjusted with sodium hydroxide solution. The mobile phase comprised of buffer (600) and acetonitrile (400). A Luna C18 150 mm×4.6 mm column was used with a flow rate of 1.0 ml/min and a wavelength of 205 nm. Validation of this method provided a linear regression, R^2, of 0.9998.

recrystallisation (XRPD) ([1]; storage four weeks at 40 degrees Celsius and 75% relative humidity) | solubility at 24 h ([2]; aqueous buffer, acetate buffer (pH 4.5)) [µg/mL] | solubility at 24 h ([2]; aqueous buffer, phosphate buffer (pH 6.8)) [µg/mL] | solubility at 24 h ([2]; distilled water) [µg/mL] | stability in 0.1 M HCl ([2]; 0.1 M HCl solubility medium, results omitted for both forms) | SMILES | solid-state stability of the amorphous form ([1]; 25, 30 and 40 degrees Celsius, 75% RH, 4 weeks)
no recrystallisation | 1150 ± 6.5 (≈ 1370 µM) | 208 ± 3.7 (≈ 249 µM) | 8.6 ± 1.8 (≈ 10.3 µM) | – | CC[C@H]1OC(=O)[C@H](C)[C@@H](O[C@H]2C[C@@](C)(OC)[C@@H](O)[C@H](C)O2)[C@H](C)[C@@H](O[C@@H]2O[C@H](C)C[C@H](N(C)C)[C@H]2O)[C@](C)(O)C[C@@H](C)/C(=N\OCOCCOC)[C@H](C)[C@@H](O)[C@]1(C)O [Form-III, roxithromycin] | stable over a period of 4 weeks and did not recrystallise to a crystalline form
– | – | – | – | rapid degradation | CC[C@H]1OC(=O)[C@H](C)[C@@H](O[C@H]2C[C@@](C)(OC)[C@@H](O)[C@H](C)O2)[C@H](C)[C@@H](O[C@@H]2O[C@H](C)C[C@H](N(C)C)[C@H]2O)[C@](C)(O)C[C@@H](C)/C(=N\OCOCCOC)[C@H](C)[C@@H](O)[C@]1(C)O [roxithromycin, 3R, 4S, 5S, 6R, 7R, 9R, 11S, 12R, 13S, 14R-6-[(2S,3R,4S,6R)-4-dimethylamino-3-hydroxy-6-methyloxan-2-yl]oxy-14-ethyl-7,12,13-trihydroxy-4-[(2R,4R,5S,6S)-5-hydroxy-4-methoxy-4,6-dimethyloxan-2-yl]oxy-10-(2-methoxyethoxymethoxyimino)-3,5,7,9,11,13-hexamethyl-1-oxacyclotetradecan-2-one] | –
